# Assay results taken from patent US11072634B2, “Inhibitors of transglutaminases” (Zedira GmbH, priority 2016, dated 2021).
# Where a SMILES comes first, the peptide text is derived from it. [ ]: non-standard residue; d: D form. The star is where a group is joined. DON = [N-]=[N+]=CC(=O)CC[C@H](N)C(=O)O; Cbz = O=C(OCc1ccccc1)*
# Assays:
# [1] = system: CaCo2 (human colon carcinoma cell line); assay: Cell Proliferation ELISA, BrdU; type: cell-based
# Protocol: (§1) The following cell lines are used for determination of cytotoxicity: • CaCo2 (human colon carcinoma cell line) • Huh7 (human liver carcinoma cell line).
# (§2) Cells are cultivated in DMEM/10% FCS at 37° C. and 5% CO2 in a 96 well plate with an initial seeding density of 2×10^4 cells/well.
# (§3) Transglutaminase inhibitors are added to the cells with final concentrations from 0.1 μM to 1 mM one hour after seeding. The different inhibitor dilutions are prepared in DMSO, resulting in a final concentration of 1% (v/v) DMSO in every well (2 μl inhibitor in 200 μl cell culture medium). Cycloheximide (2.5 μg/ml) and Camptothecin (0.2 μg/ml) are used as control compounds. All measurements are performed in triplicates.
# (§4) Determination of proliferation using Cell Proliferation ELISA, BrdU (Roche, Cat. No. 11647229001).
# (§5) After 24 h of incubation with inhibitors or controls, BrdU is added to the cells. After further incubation for 18 h, the cells are fixed and cellular DNA becomes denatured. A monoclonal antibody (conjugated with peroxidase) raised against BrdU is added to the wells and binds to BrdU which is incorporated into the DNA. Substrate solution is added and absorbance at 450 nm is recorded. Further analysis is performed according to the manufacturer's protocol.
# [2] = system: Huh7 (human liver carcinoma cell line); assay: Cell Proliferation ELISA, BrdU; type: cell-based
# Protocol: as §1, §2, §3, §4, §5
# [3] = system: CaCo2 (human colon carcinoma cell line); assay: Metabolic activity, EZ4U-Assay; type: cell-based
# Protocol: as §1, §2, §3
# (§6) Determination of metabolic activity using EZ4U-Assay (Biomedica, Cat. No. BI-5000).
# (§7) After 48 h of incubation with inhibitors or controls, the tetrazolium substrate is added to the cells. Substrate turnover by the cells is measured over two hours at 450 nm (using 630 nm was reference wavelength).
# [4] = system: Huh7 (human liver carcinoma cell line); assay: Metabolic activity, EZ4U-Assay; type: cell-based
# Protocol: as §1, §2, §3, §6, §7
# [5] = system: CaCo2 and Huh7 cells; assay: Cytotoxicity of transglutaminase inhibitors (BrdU and EZ4U); type: cell-based, human; conditions: BrdU and EZ4U, depending on the cell type
# Protocol: as §1, §2, §3
# Cytotoxicity of transglutaminase inhibitors is evaluated with two different assays:
# as §4
# After 24 h of incubation with inhibitors or controls, BrdU is added to the cells. After further incubation for 18 h, the cells are fixed and cellular DNA becomes denatured. […] Substrate solution is added and absorbance at 450 nm is recorded. […]
# as §7
structure (smiles),measurement,setting,value
"COC(=O)[C@H](CC(C)C)NC(=O)[C@@H]1CCCN1C(=O)[C@@H](NC(=O)[C@H](CCC(=O)C=[N+]=[N-])NC(=O)OCc1ccccc1)C(C)C [Compound Z006, Z-DON-VPL-OMe, reference compound] (Cbz-[DON]VPL-OMe)","Cytotoxicity concentration (>10% deviation from negative control), BrdU, Caco2",[1],250 µM
same,"Cytotoxicity concentration (>10% deviation from negative control), BrdU, Huh-7",[2],125 µM
same,"Cytotoxicity concentration (>10% deviation from negative control), EZ4U, Caoo2",[3],500 µM
same,"Cytotoxicity concentration (>10% deviation from negative control), EZ4U, Huh-7",[4],125 µM
same,concentration at which cytotoxic (reduced cell proliferation and metabolic activity),[5],125 µM
